Experimental data published in patent US6664241B2, “Water-soluble amide derivatives of polyene macrolides and preparation and uses thereof” (Micrologix Biotech Inc., priority 2000, dated 2003).
In brackets after ≈: the same amount, converted by molar mass.

Columns and labels:
[1] = Maximum non-lethal dose (NLD), single intravenous dose in mice; type: in vivo, Swiss-Webster male mice; conditions: test compounds as aspartate salts in 5% mannitol, AmB as FUNGIZONE
Protocol: A variety of the compounds synthesized as described in Section 5, supra, were tested in various in vivo assays, as described below. The results of the various assays are provided in TABLE 3, presented at the end of this section. In all of the in vivo assays described, the test compounds, in the form of the aspartate salts, were formulated in an aqueous vehicle (5% mannitol in sterile water; OSMITROL, Baxter Healthcare, Deerfield, Ill.), followed by appropriate dilutions. The formulations were prepared fresh before dosing.
AmB and AME were also tested for comparison. For AmB, the commercially available FUNGIZONE (Bristol-Meyers Squibb Co.) was used. Reported values are based upon the weight of the AmB active ingredient, not on the basis of the weight of the FUNGIZONE powder. AME was formulated in OSMITROL as described for the test compounds.
Maximum non-lethal dose (NLD) data were obtained for selected compounds. A single intravenous dose was administered to each of four mice (Swiss-Webster male mice; Simonsen Laboratories, Gilroy, Calif.) in several groups. The doses selected were based upon the NLDs of compounds of similar structures. After review of findings, higher or lower doses were administered and a NLD was determined. The results are tabulated in TABLE 3, below (NLD Acute Mice). The values for AmB and AME are provided for comparison

C. albicans = experiment: Minimum Inhibitory Concentrations (MICs) against C. albicans, NCCLS M27-A broth dilution; type: cell-based; conditions: Candida albicans, read-out: MIC
Protocol: For each compound synthesized, Minimum Inhibitory Concentrations (MICs) against C. albicans were determined as described in Reference Method for Broth Dilution Antifungal Susceptibility Testing of Yeasts, Approved Standard, NCCLS document M27-A (ISBN 1-56238-328-0), NCCLS, 940 West Valley Road, Suite 1400, Wayne, Pa. 19087, 1997.

| Structure (SMILES) | MIC (C. albicans) | NLD acute mice [1] |
| --- | --- | --- |
| CC1[C@H](C)OC(=O)C[C@H](O)C[C@H](O)CC[C@@H](O)[C@H](O)C[C@H](O)C[C@]2(O)C[C@H](O)C(C(=O)N[C@H]3C(O)O[C@H](CO)[C@H](O)[C@@H]3O)C(C[C@@H](OC3O[C@H](C)[C@@H](O)[C@H](N)[C@@H]3O)/C=C/C=C/C=C/C=C/C=C/C=C/C=C/[C@H](C)[C@H]1O)O2 (some centres unmarked) [Compound 124] | 1 µg/mL (≈ 0.921 µM) | 16 mg/kg |
| CC1[C@H](C)OC(=O)C[C@H](O)C[C@H](O)CC[C@@H](O)[C@H](O)C[C@H](O)C[C@]2(O)C[C@H](O)C(C(=O)NCC(O)C(O)C(O)C(O)CO)C(C[C@@H](OC3O[C@H](C)[C@@H](O)[C@H](N)[C@@H]3O)/C=C/C=C/C=C/C=C/C=C/C=C/C=C/[C@H](C)[C@H]1O)O2 (some centres unmarked) [Compound 126] | 3 µg/mL (≈ 2.76 µM) |  |
| CC1[C@H](C)OC(=O)C[C@H](O)C[C@H](O)CC[C@@H](O)[C@H](O)C[C@H](O)C[C@]2(O)C[C@H](O)C(C(=O)N3CCN(CCO)CC3)C(C[C@@H](OC3O[C@H](C)[C@@H](O)[C@H](NC[C@@]4(O)OC[C@@H](O)[C@@H](OC5O[C@H](CO)[C@H](O)[C@H](O)[C@H]5O)[C@@H]4O)[C@@H]3O)/C=C/C=C/C=C/C=C/C=C/C=C/C=C/[C@H](C)[C@H]1O)O2 (some centres unmarked) [Compound 147] | 2 µg/mL (≈ 1.47 µM) | <7.5 mg/kg |
| CC1[C@H](C)OC(=O)C[C@H](O)C[C@H](O)CC[C@@H](O)[C@H](O)C[C@H](O)C[C@]2(O)C[C@H](O)C(C(=O)N[C@H]3C(O)O[C@H](CO)[C@@H](O)[C@@H]3O)C(C[C@@H](OC3O[C@H](C)[C@@H](O)[C@H](N)[C@@H]3O)/C=C/C=C/C=C/C=C/C=C/C=C/C=C/[C@H](C)[C@H]1O)O2 (some centres unmarked) [Compound 123] | 5.3 µg/mL (≈ 4.88 µM) | 32 mg/kg |
| CC1[C@H](C)OC(=O)C[C@H](O)C[C@H](O)CC[C@@H](O)[C@H](O)C[C@H](O)C[C@]2(O)C[C@H](O)C(C(=O)N3CCN(C)CC3)C(C[C@@H](OC3O[C@H](C)[C@@H](O)[C@H](NC[C@@]4(O)OC[C@@H](O)[C@@H](OC5O[C@H](CO)[C@H](O)[C@H](O)[C@H]5O)[C@@H]4O)[C@@H]3O)/C=C/C=C/C=C/C=C/C=C/C=C/C=C/[C@H](C)[C@H]1O)O2 (some centres unmarked) [Compound 146] | 2 µg/mL (≈ 1.5 µM) | <7.5 mg/kg |
| CC1[C@H](C)OC(=O)C[C@H](O)C[C@H](O)CC[C@@H](O)[C@H](O)C[C@H](O)C[C@]2(O)C[C@H](O)C(C(=O)N3CCOCC3)C(C[C@@H](OC3O[C@H](C)[C@@H](O)[C@H](NC[C@@]4(O)OC[C@@H](O)[C@@H](O)[C@@H]4O)[C@@H]3O)/C=C/C=C/C=C/C=C/C=C/C=C/C=C/[C@H](C)[C@H]1O)O2 (some centres unmarked) [Compound 131] | 4 µg/mL (≈ 3.46 µM) | 5 mg/kg |
| CC1[C@H](C)OC(=O)C[C@H](O)C[C@H](O)CC[C@@H](O)[C@H](O)C[C@H](O)C[C@]2(O)C[C@H](O)C(C(=O)N[C@@H]3C(O)O[C@H](CO)[C@@H](O)[C@@H]3O)C(C[C@@H](OC3O[C@H](C)[C@@H](O)[C@H](N)[C@@H]3O)/C=C/C=C/C=C/C=C/C=C/C=C/C=C/[C@H](C)[C@H]1O)O2 (some centres unmarked) [Compound 125] | 1 µg/mL (≈ 0.921 µM) | 8 mg/kg |
| CC1[C@H](C)OC(=O)C[C@H](O)C[C@H](O)CC[C@@H](O)[C@H](O)C[C@H](O)C[C@]2(O)C[C@H](O)C(C(=O)N3CCOCC3)C(C[C@@H](OC3O[C@H](C)[C@@H](O)[C@H](NC[C@@]4(O)OC[C@@H](O)[C@H](O)[C@@H]4O)[C@@H]3O)/C=C/C=C/C=C/C=C/C=C/C=C/C=C/[C@H](C)[C@H]1O)O2 (some centres unmarked) [Compound 137] | 2 µg/mL (≈ 1.73 µM) | 5 mg/kg |

Second part, led by results:

| MIC (C. albicans) | Structure (SMILES) | NLD acute mice [1] |
| --- | --- | --- |
| 4 µg/mL (≈ 3.36 µM) | CC1[C@H](C)OC(=O)C[C@H](O)C[C@H](O)CC[C@@H](O)[C@H](O)C[C@H](O)C[C@]2(O)C[C@H](O)C(C(=O)NCCc3ccccn3)C(C[C@@H](OC3O[C@H](C)[C@@H](O)[C@H](NC[C@@]4(O)OC[C@@H](O)[C@@H](O)[C@@H]4O)[C@@H]3O)/C=C/C=C/C=C/C=C/C=C/C=C/C=C/[C@H](C)[C@H]1O)O2 (some centres unmarked) [Compound 101] |  |
| 4 µg/mL (≈ 3.38 µM) | CC1[C@H](C)OC(=O)C[C@H](O)C[C@H](O)CC[C@@H](O)[C@H](O)C[C@H](O)C[C@]2(O)C[C@H](O)C(C(=O)NN3CCN(C)CC3)C(C[C@@H](OC3O[C@H](C)[C@@H](O)[C@H](NC[C@@]4(O)OC[C@@H](O)[C@H](O)[C@@H]4O)[C@@H]3O)/C=C/C=C/C=C/C=C/C=C/C=C/C=C/[C@H](C)[C@H]1O)O2 (some centres unmarked) [Compound 108] |  |
| 8 µg/mL (≈ 5.67 µM) | CC1[C@H](C)OC(=O)C[C@H](O)C[C@H](O)CC[C@@H](O)[C@H](O)C[C@H](O)C[C@]2(O)C[C@H](O)C(C(=O)NCC(O)C(O)C(O)C(O)CO)C(C[C@@H](OC3O[C@H](C)[C@@H](O)[C@H](NC[C@@]4(O)OC[C@@H](O)[C@@H](OC5O[C@H](CO)[C@@H](O)[C@H](O)[C@H]5O)[C@@H]4O)[C@@H]3O)/C=C/C=C/C=C/C=C/C=C/C=C/C=C/[C@H](C)[C@H]1O)O2 (some centres unmarked) [Compound 117] |  |
| 2.7 µg/mL (≈ 2.31 µM) | Cc1cc(NC(=O)C2C3C[C@@H](OC4O[C@H](C)[C@@H](O)[C@H](NC[C@@]5(O)OC[C@@H](O)[C@@H](O)[C@@H]5O)[C@@H]4O)/C=C/C=C/C=C/C=C/C=C/C=C/C=C/[C@H](C)[C@@H](O)C(C)[C@H](C)OC(=O)C[C@H](O)C[C@H](O)CC[C@@H](O)[C@H](O)C[C@H](O)C[C@](O)(C[C@@H]2O)O3)no1 (some centres unmarked) [Compound 102] |  |
| 2 µg/mL (≈ 1.73 µM) | CC1[C@H](C)OC(=O)C[C@H](O)C[C@H](O)CC[C@@H](O)[C@H](O)C[C@H](O)C[C@]2(O)C[C@H](O)C(C(=O)NCC(O)CO)C(C[C@@H](OC3O[C@H](C)[C@@H](O)[C@H](NC[C@@]4(O)OC[C@@H](O)[C@@H](O)[C@@H]4O)[C@@H]3O)/C=C/C=C/C=C/C=C/C=C/C=C/C=C/[C@H](C)[C@H]1O)O2 (some centres unmarked) [Compound 105] |  |
| 8 µg/mL (≈ 6.05 µM) | CC1[C@H](C)OC(=O)C[C@H](O)C[C@H](O)CC[C@@H](O)[C@H](O)C[C@H](O)C[C@]2(O)C[C@H](O)C(C(=O)NCC(O)CO)C(C[C@@H](OC3O[C@H](C)[C@@H](O)[C@H](NC[C@@]4(O)OC[C@@H](O)[C@@H](OC5O[C@H](CO)[C@@H](O)[C@H](O)[C@H]5O)[C@@H]4O)[C@@H]3O)/C=C/C=C/C=C/C=C/C=C/C=C/C=C/[C@H](C)[C@H]1O)O2 (some centres unmarked) [Compound 119] |  |
| 8 µg/mL (≈ 5.91 µM) | CC1[C@H](C)OC(=O)C[C@H](O)C[C@H](O)CC[C@@H](O)[C@H](O)C[C@H](O)C[C@]2(O)C[C@H](O)C(C(=O)NCCc3ccccn3)C(C[C@@H](OC3O[C@H](C)[C@@H](O)[C@H](NC[C@@]4(O)OC[C@@H](O)[C@@H](OC5O[C@H](CO)[C@@H](O)[C@H](O)[C@H]5O)[C@@H]4O)[C@@H]3O)/C=C/C=C/C=C/C=C/C=C/C=C/C=C/[C@H](C)[C@H]1O)O2 (some centres unmarked) [Compound 116] |  |
| 2 µg/mL (≈ 1.69 µM) | CC1[C@H](C)OC(=O)C[C@H](O)C[C@H](O)CC[C@@H](O)[C@H](O)C[C@H](O)C[C@]2(O)C[C@H](O)C(C(=O)NN3CCN(C)CC3)C(C[C@@H](OC3O[C@H](C)[C@@H](O)[C@H](NC[C@@]4(O)OC[C@@H](O)[C@@H](O)[C@@H]4O)[C@@H]3O)/C=C/C=C/C=C/C=C/C=C/C=C/C=C/[C@H](C)[C@H]1O)O2 (some centres unmarked) [Compound 100] |  |
| 8 µg/mL (≈ 5.89 µM) | CC1[C@H](C)OC(=O)C[C@H](O)C[C@H](O)CC[C@@H](O)[C@H](O)C[C@H](O)C[C@]2(O)C[C@H](O)C(C(=O)NCCc3cccs3)C(C[C@@H](OC3O[C@H](C)[C@@H](O)[C@H](NC[C@@]4(O)OC[C@@H](O)[C@@H](OC5O[C@H](CO)[C@@H](O)[C@H](O)[C@H]5O)[C@@H]4O)[C@@H]3O)/C=C/C=C/C=C/C=C/C=C/C=C/C=C/[C@H](C)[C@H]1O)O2 (some centres unmarked) [Compound 121] |  |
| 8 µg/mL (≈ 5.89 µM) | CC1[C@H](C)OC(=O)C[C@H](O)C[C@H](O)CC[C@@H](O)[C@H](O)C[C@H](O)C[C@]2(O)C[C@H](O)C(C(=O)NCCN3CCCCC3)C(C[C@@H](OC3O[C@H](C)[C@@H](O)[C@H](NC[C@@]4(O)OC[C@@H](O)[C@@H](OC5O[C@H](CO)[C@@H](O)[C@H](O)[C@H]5O)[C@@H]4O)[C@@H]3O)/C=C/C=C/C=C/C=C/C=C/C=C/C=C/[C@H](C)[C@H]1O)O2 (some centres unmarked) [Compound 120] |  |
| 2 µg/mL (≈ 1.68 µM) | CC1[C@H](C)OC(=O)C[C@H](O)C[C@H](O)CC[C@@H](O)[C@H](O)C[C@H](O)C[C@]2(O)C[C@H](O)C(C(=O)NCCc3ccccn3)C(C[C@@H](OC3O[C@H](C)[C@@H](O)[C@H](NC[C@@]4(O)OC[C@@H](O)[C@H](O)[C@@H]4O)[C@@H]3O)/C=C/C=C/C=C/C=C/C=C/C=C/C=C/[C@H](C)[C@H]1O)O2 (some centres unmarked) [Compound 109] |  |
